# Experimental data: US20110275094A1, “PHOSPHORYLATED FMS-RELATED TYROSINE KINASE 3 BIOMARKER ASSAY” (priority 2008, published 2011)
# Read-outs that look alike come from different tables or passages of the source.
# Legend:
# [1] = AC220 phase I study, tolerability; format: in vivo; conditions: QD, patients of phase I study
# Excerpt: Thus, the pFLT3 ELISA of the invention successfully yielded useful pharmacodynamic data that not only guided the decision to change the dosing schedule from intermittent to continuous, but also guided the selection of the starting dose level for the 28-day continuous schedule, when information on dose limiting toxicity or maximum tolerated dose was still unavailable.
# [2] = system: peripheral blast / bone marrow blast
# Method: The samples were then flash frozen in −70° C. A small number of patient samples were frozen unlysed and lysed afterwards.
compound,measurement,setting,value
CC(C)(C)c1cc(NC(=O)Nc2ccc(-c3cn4c(n3)sc3cc(OCCN5CCOCC5)ccc34)cc2)no1 [AC220],maximum tolerated dose,[1],> 300 mg per day
same,bone marrow blast percentage,[2]; Patient A,appeared to reduce bone marrow blast percentage
same,protocol defined response,[2]; Patient D,CRp/PR
same,protocol defined response,[2]; Patient E,CRi
